From PMC9921273, “Omega-3 PUFAs as a Dietary Supplement in Senile Systemic Amyloidosis” (Nutrients, 2023)

Legend:
[1] = biological target: T1, transthyretin (wt-TTR) (Homo sapiens, UniProt P02766); experiment: ANS fluorescence displacement binding assay (also turbidimetric and ThT fibril formation assays); set-up: wt-TTR tetramer, human plasma
[2] = biological target: T1, transthyretin (wt-TTR); experiment: ANS fluorescence displacement binding assay (also turbidimetric fibril formation assay); set-up: wt-TTR tetramer, human plasma

IC50 [1]	IC50 [2]	SMILES
12.1 ± 0.07 µM		CC/C=C\C/C=C\C/C=C\C/C=C\C/C=C\C/C=C\CCC(=O)O [DHA, docosahexaenoic acid]
	13 ± 0.08 µM	CC/C=C\C/C=C\C/C=C\C/C=C\C/C=C\CCCC(=O)O [EPA, eicosapentaenoic acid]
